{"source": "patent US20240165112A1", "about": "“THERAPY FOR THE TREATMENT OF CANCER” (Bristol-Myers Squibb Company, priority 2022, published 2024)", "key": {"[1]": {"tested_on": "primary human macrophages", "assay": "Primary macrophage viability (Cell Titer Glo)", "type": "cell-based", "settings": "Cell Titer Glo at the end of the experiment; any of the doses tested", "protocol": "FIG. 12 illustrates the effect of Compound 1 on Primary Macrophage Viability. Primary human monocytes were differentiated into macrophages and treated with varying doses of DMSO or Compound 1. Cell viability was assessed by Cell Titer Glo 24 hours after drug treatment. Viability in drug treatment groups was normalized to the equivalent DMSO concentration. Data are plotted as the mean and standard deviation of 3 donors and representative of 2 independent experiments. Abbreviations: DMSO, dimethyl sulfoxide.\n(§1) Peripheral blood mononuclear cells (PBMCs) were isolated from human blood using aseptic conditions. CD14+ monocytes were enriched from PBMC using Miltenyi Biotech kit (using CD14 microbeads). Fresh CD14+ monocytes were differentiated to macrophages using complete RPMI1640 medium with M-CSF recombinant human protein at the final concentration of 50 ng/mL. At Day 3-4, media containing M-CSF was added on monocytes/macrophages and incubated for 6-7 days in 5% CO2 incubator at 37° C. 10 mL 10 mM EDTA or Detachin was added to the culture dish containing macrophages, and let sit for 20-30 minutes, or until cells dissociate from the dish at room temperature. Macrophages were collected and washed in a 50 mL conical tube and centrifuged at 300-400×g for 4-5 minutes at room temperature. […]"}, "[2]": {"tested_on": "CCL2 secretion by primary human macrophages", "assay": "CCL2 secretion in primary human macrophages (ELISA)", "type": "cell-based", "settings": "normalized to DMSO", "protocol": "FIG. 11 illustrates the effect of Compound 1 Treatment on CCL2 Secretion in Primary Human Macrophages. Primary human monocytes were differentiated into macrophages and treated with varying doses of DMSO or Compound 1. The CCL2 levels were measured in the cell supernatant by ELISA 24 hours after drug treatment. The CCL2 secretion levels were normalized to the equivalent DMSO concentration. Data are plotted as the mean and standard deviation of 3 donors and representative of 2 independent experiments. *P<0.05; ** P<0.01, ***P<0.001; ****P<0.0001 by student's t-test. Abbreviations: CCL2, C—C motif chemokine ligand 2; DMSO, dimethyl sulfoxide; ELISA, enzyme-linked immunosorbent assay.\nas §1, with “temperature.” for “temperature. Macrophages were collected and washed in a 50 mL conical tube and centrifuged at 300-400×g for 4-5 minutes at room temperature.”"}}}
{"smiles": "C[C@@H]1CC[C@@H](Nc2nc(NC(C)(C)C)ncc2C(N)=O)C[C@H]1O", "note": "[Compound 1, 2-(tert-butylamino)-4-((1R,3R,4R)-3-hydroxy-4-methylcyclohexylamino)-pyrimidine-5-carboxamide]", "values": [{"measurement": "Macrophage cell viability relative to DMSO", "setting": "[1]", "result": "No change in cell viability"}, {"measurement": "reduction in CCL2", "setting": "[2]; 7.4 μM Compound 1, supernatant", "result": 36, "unit": "%"}, {"measurement": "reduction in CCL2", "setting": "[2]; 20 μM Compound 1, supernatant", "result": 43, "unit": "%"}]}
